Laboratory results as given in PubChem BioAssay AID248 (DTP/NCI, 2004).
Where “and” joins values, the source holds several entries; their conditions need not be identical. Identical values can stand only once. Toxic doses and inconclusive results are not listed. Rule as the data show it: active = T/C of 150% or more; inactive = T/C below 125%.

Tested on: L1210 leukemia ip in BDF1 mice, survival T/C
Test: NCI In Vivo Anticancer Drug Screen. Data for tumor model L1210 Leukemia (intraperitoneal) in B6D2F1 (BDF1) mice
Conditions: endpoint: mean survival time, higher = longer survival
In short: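 Transplantable tumor model; survival measured in treated vs vehicle control mice. Value = treated/control.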

[1] = dose: 100.0 mg/kg/injection, schedule: Q04DX003 (ip), vehicle: Klucel (hydroxypropylcellulose) (HPC)
[2] = dose: 200.0 mg/kg/injection, schedule: Q04DX003 (ip), vehicle: Klucel (hydroxypropylcellulose) (HPC)
[3] = dose: 400.0 mg/kg/injection, schedule: Q04DX003 (ip), vehicle: Klucel (hydroxypropylcellulose) (HPC)
[4] = dose: 100.0 mg/kg/injection, schedule: Q01DX009 (ip), vehicle: Klucel (hydroxypropylcellulose) (HPC)
[5] = dose: 200.0 mg/kg/injection, schedule: Q01DX009 (ip), vehicle: Klucel (hydroxypropylcellulose) (HPC)
[6] = dose: 100.0 mg/kg/injection, schedule: Q01DX009 (ip), vehicle: saline with Tween-80
[7] = dose: 100.0 mg/kg/injection, schedule: Q04DX003 (ip), vehicle: saline with Tween-80
[8] = dose: 200.0 mg/kg/injection, schedule: Q01DX009 (ip), vehicle: saline with Tween-80
[9] = dose: 200.0 mg/kg/injection, schedule: Q04DX003 (ip), vehicle: saline with Tween-80
[10] = dose: 400.0 mg/kg/injection, schedule: Q04DX003 (ip), vehicle: saline with Tween-80
[11] = dose: 25.0 mg/kg/injection, schedule: Q04DX002 (ip), vehicle: Klucel (hydroxypropylcellulose) (HPC)
[12] = dose: 50.0 mg/kg/injection, schedule: Q01DX001 (ip), vehicle: carboxymethylcellulose (CMC)
[13] = dose: 50.0 mg/kg/injection, schedule: Q04DX002 (ip), vehicle: Klucel (hydroxypropylcellulose) (HPC)
[14] = dose: 100.0 mg/kg/injection, schedule: Q01DX001 (ip), vehicle: carboxymethylcellulose (CMC)
[15] = dose: 200.0 mg/kg/injection, schedule: Q01DX001 (ip), vehicle: carboxymethylcellulose (CMC)
[16] = dose: 100.0 mg/kg/injection, schedule: Q04DX002 (ip), vehicle: saline
[17] = dose: 200.0 mg/kg/injection, schedule: Q04DX002 (ip), vehicle: saline
[18] = dose: 400.0 mg/kg/injection, schedule: Q04DX002 (ip), vehicle: saline
[19] = dose: 100.0 mg/kg/injection, schedule: Q04DX002 (ip), vehicle: Klucel (hydroxypropylcellulose) (HPC)
[20] = dose: 100.0 mg/kg/injection, schedule: Q01DX001 (ip), vehicle: saline
[21] = dose: 200.0 mg/kg/injection, schedule: Q01DX001 (ip), vehicle: saline
[22] = dose: 400.0 mg/kg/injection, schedule: Q01DX001 (ip), vehicle: saline
[23] = dose: 200.0 mg/kg/injection, schedule: Q04DX002 (ip), vehicle: Klucel (hydroxypropylcellulose) (HPC)
[24] = dose: 400.0 mg/kg/injection, schedule: Q04DX002 (ip), vehicle: Klucel (hydroxypropylcellulose) (HPC)

Measured: T/C

CCOP(=O)(Cc1ccc(Cl)cc1)OCC
inactive: dose: 100.0 mg/kg/injection, schedule: Q01DX009 (ip), vehicle: carboxymethylcellulose (CMC) 102 % of control and 90 % of control | dose: 100.0 mg/kg/injection, schedule: Q04DX002 (ip), vehicle: carboxymethylcellulose (CMC) 98 % of control and 107 % of control | dose: 100.0 mg/kg/injection, schedule: Q04DX003 (ip), vehicle: carboxymethylcellulose (CMC) 96 % of control | dose: 200.0 mg/kg/injection, schedule: Q01DX009 (ip), vehicle: carboxymethylcellulose (CMC) 104 % of control and 107 % of control | dose: 200.0 mg/kg/injection, schedule: Q04DX002 (ip), vehicle: carboxymethylcellulose (CMC) 93 % of control and 101 % of control | dose: 200.0 mg/kg/injection, schedule: Q04DX003 (ip), vehicle: carboxymethylcellulose (CMC) 100 % of control | dose: 400.0 mg/kg/injection, schedule: Q04DX002 (ip), vehicle: carboxymethylcellulose (CMC) 93 % of control and 95 % of control

CCCCc1c(F)cccc1C(=O)O
inactive: dose: 12.5 mg/kg/injection, schedule: Q04DX003 (ip), vehicle: saline 101 % of control | dose: 25.0 mg/kg/injection, schedule: Q04DX003 (ip), vehicle: saline 108 % of control | dose: 50.0 mg/kg/injection, schedule: Q04DX003 (ip), vehicle: saline 87 % of control

CC(=O)Nc1cc(C(C)=O)ccc1O
inactive: [1] 106 % of control | [2] 98 % of control | [3] 103 % of control

CC(=O)Nc1nnc(Sc2ccc([N+](=O)[O-])cc2[N+](=O)[O-])s1
inactive: [4] 95 % of control | [5] 95 % of control | dose: 400.0 mg/kg/injection, schedule: Q01DX009 (ip), vehicle: Klucel (hydroxypropylcellulose) (HPC) 100 % of control

COC(=O)CCN(c1ccccc1)S(=O)(=O)c1ccc(C)cc1
inactive: [1] 91 % of control | [2] 94 % of control | [3] 93 % of control

CSc1ccc(NC(=O)Nc2cc(C)ccc2N=Nc2ccc(C)cc2)cc1
inactive: dose: 100.0 mg/kg/injection, schedule: Q01DX009 (ip), vehicle: other 89 % of control | dose: 200.0 mg/kg/injection, schedule: Q01DX009 (ip), vehicle: other 102 % of control | dose: 400.0 mg/kg/injection, schedule: Q01DX009 (ip), vehicle: other 96 % of control

CN1CCCN(C)CC1
inactive: dose: 25.0 mg/kg/injection, schedule: Q01DX009 (ip), vehicle: saline with Tween-80 104 % of control | dose: 50.0 mg/kg/injection, schedule: Q01DX009 (ip), vehicle: saline with Tween-80 97 % of control | [6] 103 % of control | [7] 95 % of control | [8] 91 % of control | [9] 100 % of control | [10] 102 % of control

O=[N+]([O-])/C=C/c1ccc(Cl)cc1Cl
inactive: dose: 20.0 mg/kg/injection, schedule: Q01DX009 (ip), vehicle: saline with Tween-80 98 % of control | dose: 20.0 mg/kg/injection, schedule: Q04DX003 (ip), vehicle: saline with Tween-80 90 % of control | [11] 106 % of control | dose: 40.0 mg/kg/injection, schedule: Q01DX009 (ip), vehicle: saline with Tween-80 102 % of control | dose: 40.0 mg/kg/injection, schedule: Q04DX003 (ip), vehicle: saline with Tween-80 101 % of control | [12] 95 % of control | [13] 100 % of control | dose: 80.0 mg/kg/injection, schedule: Q04DX003 (ip), vehicle: saline with Tween-80 111 % of control | [14] 98 % of control | [15] 89 % of control | dose: 400.0 mg/kg/injection, schedule: Q01DX001 (ip), vehicle: carboxymethylcellulose (CMC) 101 % of control

CCN(CC)C(=O)CCC(=O)O
inactive: [16] 89 % of control | [17] 103 % of control | [18] 103 % of control

C=CS(=O)(=O)c1ccc(C)cc1
inactive: [11] 104 % of control | [13] 110 % of control | [19] 96 % of control and 104 % of control

S=C1NCCS1
inactive: [12] 113 % of control | dose: 50.0 mg/kg/injection, schedule: Q01DX009 (ip), vehicle: Klucel (hydroxypropylcellulose) (HPC) 110 % of control | [14] 102 % of control | [4] 108 % of control | [1] 108 % of control | [15] 94 % of control | [5] 110 % of control | [2] 113 % of control

COCC(=O)c1ccccc1
inactive: dose: 50.0 mg/kg/injection, schedule: Q01DX001 (ip), vehicle: saline 96 % of control | [20] 98 % of control | [21] 98 % of control | [22] 93 % of control

CCCCCCCCCCCCCCCCCC(=O)NCC[N+](C)(C)C
inactive: dose: 5.0 mg/kg/injection, schedule: Q01DX001 (ip), vehicle: saline 98 % of control | dose: 10.0 mg/kg/injection, schedule: Q01DX001 (ip), vehicle: saline 96 % of control | dose: 20.0 mg/kg/injection, schedule: Q01DX001 (ip), vehicle: saline 98 % of control | dose: 40.0 mg/kg/injection, schedule: Q01DX001 (ip), vehicle: saline 93 % of control | dose: 80.0 mg/kg/injection, schedule: Q01DX001 (ip), vehicle: saline 102 % of control

CCCCCCOC(CN(C)C)C(Cl)(Cl)Cl (stereo not drawn)
inactive: [6] 101 % of control | [7] 93 % of control | [8] 98 % of control | [9] 95 % of control | [10] 98 % of control

CC(=O)NC(C)C(=O)O (stereo not drawn)
inactive: [20] 90 % of control and 92 % of control | dose: 100.0 mg/kg/injection, schedule: Q01DX009 (ip), vehicle: saline 100 % of control and 111 % of control and 103 % of control | [16] 96 % of control and 111 % of control and 92 % of control | dose: 100.0 mg/kg/injection, schedule: Q04DX003 (ip), vehicle: saline 89 % of control and 103 % of control | [21] 106 % of control and 93 % of control | dose: 200.0 mg/kg/injection, schedule: Q01DX009 (ip), vehicle: saline 93 % of control and 92 % of control and 97 % of control | [17] 105 % of control and 93 % of control and 94 % of control | dose: 200.0 mg/kg/injection, schedule: Q04DX003 (ip), vehicle: saline 90 % of control and 98 % of control | [22] 94 % of control and 93 % of control | dose: 400.0 mg/kg/injection, schedule: Q01DX009 (ip), vehicle: saline 90 % of control and 92 % of control and 100 % of control | [18] 96 % of control and 94 % of control and 101 % of control | dose: 400.0 mg/kg/injection, schedule: Q04DX003 (ip), vehicle: saline 94 % of control and 103 % of control

O=[N+]([O-])CCCl
inactive: dose: 2.5 mg/kg/injection, schedule: Q04DX003 (ip), vehicle: Klucel (hydroxypropylcellulose) (HPC) 104 % of control | dose: 5.0 mg/kg/injection, schedule: Q01DX009 (ip), vehicle: saline 105 % of control | dose: 5.0 mg/kg/injection, schedule: Q04DX003 (ip), vehicle: Klucel (hydroxypropylcellulose) (HPC) 103 % of control | dose: 10.0 mg/kg/injection, schedule: Q01DX009 (ip), vehicle: saline 106 % of control | dose: 10.0 mg/kg/injection, schedule: Q04DX003 (ip), vehicle: Klucel (hydroxypropylcellulose) (HPC) 95 % of control | dose: 20.0 mg/kg/injection, schedule: Q01DX009 (ip), vehicle: saline 117 % of control | dose: 20.0 mg/kg/injection, schedule: Q04DX003 (ip), vehicle: Klucel (hydroxypropylcellulose) (HPC) 89 % of control

O=C1C=Cc2ccc3c4c(ccc1c24)C=CC3=O
inactive: dose: 100.0 mg/kg/injection, schedule: Q04DX003 (ip), vehicle: acetone 98 % of control | dose: 200.0 mg/kg/injection, schedule: Q04DX003 (ip), vehicle: acetone 91 % of control

CC(C)(C)C1=NN=C(C(C)(C)C)CS(=O)C1
inactive: [19] 90 % of control | [23] 97 % of control | [24] 101 % of control

O=S(=O)(Nc1cccc2ccccc12)c1cccc2cccnc12
inactive: [1] 90 % of control | [2] 91 % of control | [3] 91 % of control

Cc1ccc(Cl)c(NC(=O)c2ccccc2Cl)c1
inactive: [19] 97 % of control | [23] 97 % of control | [24] 104 % of control
